Test results published in ChEMBL document CHEMBL5143721, “Novel Hydroxychalcone-Based Dual Inhibitors of Aldose Reductase and α-Glucosidase as Potential Therapeutic Agents against Diabetes Mellitus and Its Complications” (J Med Chem, 2022).
Active and inactive are the calls of the source. No cut-off for these calls is given here.

Assays:
Brain [1] = assay: Antioxidant activity in rat brain homogenate assessed as inhibition of lipid peroxidation by measuring MDA concentration at 1 uM by TBARS assay relative to control; format: functional, tissue-based; design: scale not given: the % may be the effect or the level left
[2] = Inhibition of Wistar rat lens ALR2 using D,L-glyceraldehyde as substrate preincubated for 10 mins in presence of NADPH followed by substrate addition and measured after 4 mins; format: tissue-based
[3] = Inhibition of Wistar rat kidney ALR1 using sodium D-glucuronate as substrate preincubated for 10 mins in presence of NADPH followed by substrate addition and measured after 4 mins; format: tissue-based
[4] = Antioxidant activity assessed as DPPH radical scavenging activity at 100 uM incubated for 30 mins by DPPH assay relative to control; format: functional
Rattus norvegicus [5] = organism: Rattus norvegicus; assay: Selectivity index, ratio of IC50 for Wistar rat kidney ALR1 to IC50 for Wistar rat lens ALR2
[6] = Antioxidant activity assessed as DPPH radical scavenging activity at 50 uM incubated for 30 mins by DPPH assay relative to control; format: functional
[7] = Antioxidant activity assessed as DPPH radical scavenging activity at 10 uM incubated for 30 mins by DPPH assay relative to control; format: functional
[8] = Antioxidant activity assessed as DPPH radical scavenging activity at 5 uM incubated for 30 mins by DPPH assay relative to control; format: functional
[9] = Antioxidant activity assessed as DPPH radical scavenging activity at 1 uM incubated for 30 mins by DPPH assay relative to control; format: functional
Brain [10] = assay: Antioxidant activity in rat brain homogenate assessed as inhibition of lipid peroxidation by measuring MDA concentration at 5 uM by TBARS assay relative to control; format: functional, tissue-based; design: scale not given: the % may be the effect or the level left
Brain [11] = assay: Antioxidant activity in rat brain homogenate assessed as inhibition of lipid peroxidation by measuring MDA concentration at 100 uM by TBARS assay relative to control; format: functional, tissue-based; design: scale not given: the % may be the effect or the level left
Brain [12] = assay: Antioxidant activity in rat brain homogenate assessed as inhibition of lipid peroxidation by measuring MDA concentration at 50 uM by TBARS assay relative to control; format: functional, tissue-based; design: scale not given: the % may be the effect or the level left
[13] = Octanol/buffer distribution coefficient, log D of compound at pH 7.4 incubated for 24 hrs by shake flask based HPLC method; format: physicochemical
HEK-293T = assay: Cytotoxicity against HEK293T cells at 15 to 200 micromol/L by MTT assay; format: toxicity, cell-based; details: human, dose 15-200 µmol/L
Rattus norvegicus [14] = assay: Antidiabetic activity against STZ-induced diabetic Sprague-Dawley rat model assessed as reduction in fasting blood glucose level at 160 mg/kg, IG administered once daily for 28 days; format: functional; design: scale not given: the % may be the effect or the level left; details: time 28 day
Rattus norvegicus [15] = assay: Antidiabetic activity against STZ-induced diabetic Sprague-Dawley rat model assessed as reduction in fasting blood glucose level at 80 mg/kg, IG administered once daily for 28 days; format: functional; design: scale not given: the % may be the effect or the level left; details: time 28 day
Rattus norvegicus [16] = assay: Antidiabetic activity against 12 hrs fasted STZ-induced diabetic Sprague-Dawley rat model assessed as reduction in blood glucose level at 160 mg/kg, IG administered once daily for 28 days followed by glucose addition after 30 mins post cpd treatment and measured after 30 mins post glucose treatment by oral glucose tolerance test; format: functional, organism-based; details: time 673.0 hrs
Rattus norvegicus [17] = assay: Antidiabetic activity against STZ-induced diabetic Sprague-Dawley rat model assessed as increase in liver glycogen levels at 160 mg/kg, IG administered once daily for 28 days; format: functional; details: time 28 day
[18] = In vivo inhibition of ALR2 in STZ-induced diabetic Sprague-Dawley rat model assessed as reduction in ALR2 activity in lens at 160 mg/kg, IG administered once daily for 28 days relative to control; format: functional; design: scale not given: the % may be the effect or the level left; details: time 28 day
[19] = In vivo inhibition of ALR2 in STZ-induced diabetic Sprague-Dawley rat model assessed as reduction in ALR2 activity in lens at 80 mg/kg, IG administered once daily for 28 days relative to control; format: functional; design: scale not given: the % may be the effect or the level left; details: time 28 day
[20] = In vivo inhibition of ALR2 in STZ-induced diabetic Sprague-Dawley rat model assessed as reduction in sorbitol accumulation in lens at 160 mg/kg, IG administered once daily for 28 days by colorimetric assay relative to control; format: functional; design: scale not given: the % may be the effect or the level left; details: time 28 day
[21] = In vivo inhibition of ALR2 in STZ-induced diabetic Sprague-Dawley rat model assessed as reduction in sorbitol accumulation in lens at 80 mg/kg, IG administered once daily for 28 days by colorimetric assay relative to control; format: functional; design: scale not given: the % may be the effect or the level left; details: time 28 day
[22] = In vivo inhibition of ALR2 in STZ-induced diabetic Sprague-Dawley rat model assessed as reduction in sorbitol accumulation in red blood cells at 160 mg/kg, IG administered once daily for 28 days by colorimetric assay relative to control; format: functional; design: scale not given: the % may be the effect or the level left; details: time 28 day
[23] = In vivo inhibition of ALR2 in STZ-induced diabetic Sprague-Dawley rat model assessed as reduction in sorbitol accumulation in red blood cells at 80 mg/kg, IG administered once daily for 28 days by colorimetric assay relative to control; format: functional; design: scale not given: the % may be the effect or the level left; details: time 28 day
Rattus norvegicus [24] = assay: Antioxidant activity against STZ-induced diabetic Sprague-Dawley rat model assessed as reduction in SOD level at 160 mg/kg, IG administered once daily for 28 days relative to control; format: functional; design: scale not given: the % may be the effect or the level left; details: time 28 day
Rattus norvegicus [25] = assay: Antioxidant activity against STZ-induced diabetic Sprague-Dawley rat model assessed as reduction in SOD level at 80 mg/kg, IG administered once daily for 28 days relative to control; format: functional; design: scale not given: the % may be the effect or the level left; details: time 28 day
Rattus norvegicus [26] = assay: Antioxidant activity against STZ-induced diabetic Sprague-Dawley rat model assessed as reduction in GSH level at 160 mg/kg, IG administered once daily for 28 days relative to control; format: functional; design: scale not given: the % may be the effect or the level left; details: time 28 day
Rattus norvegicus [27] = assay: Antioxidant activity against STZ-induced diabetic Sprague-Dawley rat model assessed as reduction in GSH level at 80 mg/kg, IG administered once daily for 28 days relative to control; format: functional; design: scale not given: the % may be the effect or the level left; details: time 28 day
Rattus norvegicus [28] = assay: Antioxidant activity against STZ-induced diabetic Sprague-Dawley rat model assessed as reduction in MDA level at 80 to 160 mg/kg, IG administered once daily for 28 days relative to control; format: functional, organism-based; details: dose 80-160 mg/kg, time 28.0 day
Rattus norvegicus [29] = assay: Antidiabetic activity against STZ-induced diabetic Sprague-Dawley rat model assessed as reduction in total cholesterol level in serum at 160 mg/kg, IG administered once daily for 28 days relative to control; format: functional; design: scale not given: the % may be the effect or the level left; details: time 28 day
Rattus norvegicus [30] = assay: Antidiabetic activity against STZ-induced diabetic Sprague-Dawley rat model assessed as reduction in total cholesterol level in serum at 80 mg/kg, IG administered once daily for 28 days relative to control; format: functional; design: scale not given: the % may be the effect or the level left; details: time 28 day
Rattus norvegicus [31] = assay: Antidiabetic activity against STZ-induced diabetic Sprague-Dawley rat model assessed as reduction in total cholesterol level in liver at 160 mg/kg, IG administered once daily for 28 days relative to control; format: functional; design: scale not given: the % may be the effect or the level left; details: time 28 day
Rattus norvegicus [32] = assay: Antidiabetic activity against STZ-induced diabetic Sprague-Dawley rat model assessed as reduction in total cholesterol level in liver at 80 mg/kg, IG administered once daily for 28 days relative to control; format: functional; design: scale not given: the % may be the effect or the level left; details: time 28 day
Rattus norvegicus [33] = assay: Antidiabetic activity against STZ-induced diabetic Sprague-Dawley rat model assessed as reduction in triglycerides level in serum at 160 mg/kg, IG administered once daily for 28 days relative to control; format: functional; design: scale not given: the % may be the effect or the level left; details: time 28 day
Rattus norvegicus [34] = assay: Antidiabetic activity against STZ-induced diabetic Sprague-Dawley rat model assessed as reduction in triglycerides level in serum at 80 mg/kg, IG administered once daily for 28 days relative to control; format: functional; design: scale not given: the % may be the effect or the level left; details: time 28 day
Rattus norvegicus [35] = assay: Antidiabetic activity against STZ-induced diabetic Sprague-Dawley rat model assessed as reduction in triglycerides level in liver at 160 mg/kg, IG administered once daily for 28 days relative to control; format: functional; design: scale not given: the % may be the effect or the level left; details: time 28 day
Rattus norvegicus [36] = assay: Antidiabetic activity against STZ-induced diabetic Sprague-Dawley rat model assessed as reduction in triglycerides level in liver at 80 mg/kg, IG administered once daily for 28 days relative to control; format: functional; design: scale not given: the % may be the effect or the level left; details: time 28 day
Brain [37] = assay: Antioxidant activity in rat brain homogenate assessed as inhibition of lipid peroxidation by measuring MDA concentration at 10 uM relative to control; format: functional, tissue-based; design: scale not given: the % may be the effect or the level left
Rattus norvegicus [38] = assay: (§1) Antidiabetic activity against 12 hrs fasted STZ-induced diabetic Sprague-Dawley rat model assessed as reduction in AUC of blood glucose at 80 mg/kg, IG administered once daily for 28 days followed by maltose addition after 30 mins post cpd treatment and measured after 30 mins post maltose treatment; format: functional; design: scale not given: the % may be the effect or the level left
Rattus norvegicus [39] = assay: as §1, with “glucose level” for “glucose”, “160” for “80”; format: functional; design: scale not given: the % may be the effect or the level left; details: time 673 hrs

| SMILES | Activity (Brain [1]) [%] | IC50 [2] [µM] | IC50 [3] [µM] | Activity [4] [%] | Ratio IC50 (Rattus norvegicus [5]) | Activity [6] [%] | Activity [7] [%] | Activity [8] [%] | Activity [9] [%] | Activity (Brain [10]) [%] | Activity (Brain [11]) [%] | Activity (Brain [12]) [%] | logD at 24 h [13] | Activity (HEK-293T) | Activity (Rattus norvegicus [14]) [%] | Activity (Rattus norvegicus [15]) [%] | Activity (Rattus norvegicus [16]) | Activity (Rattus norvegicus [17]) [%] | Activity [18] [%] | Activity (Rattus norvegicus [29]) [%] | other results |
| --- | --- | --- | --- | --- | --- | --- | --- | --- | --- | --- | --- | --- | --- | --- | --- | --- | --- | --- | --- | --- | --- |
| COC(=O)Cn1c(=O)oc2c(C(=O)/C=C/c3ccc(O)c(O)c3)cccc21 | 35.8 | 0.114 | 6.22 | 97.5 | 54.6 | 96.5 | 94.9 | 89.4 | 41.2 | 60.5 | 97.5 | 91.6 | 0.86 | Non-Toxic | 30.4 | 20.5 | Active | 36.58 | 52.1 | 44.1 | Activity [19]: 60.8%; Activity [20]: 34.1%; Activity [21]: 41.7%; Activity [22]: 64.7%; Activity [23]: 59.7%; Activity (Rattus norvegicus [24]): 81.3%; Activity (Rattus norvegicus [25]): 35.5%; Activity (Rattus norvegicus [26]): 52.3%; Activity (Rattus norvegicus [27]): 26.8%; Activity (Rattus norvegicus [28]): Active; Activity (Rattus norvegicus [30]): 46%; Activity (Rattus norvegicus [31]): 3.1%; Activity (Rattus norvegicus [32]): 32.1%; Activity (Rattus norvegicus [33]): 56.5%; Activity (Rattus norvegicus [34]): 44%; Activity (Rattus norvegicus [35]): 33.8%; Activity (Rattus norvegicus [36]): 30.6%; Activity (Brain [37]): 77.5% |
| C[C@H]1O[C@H](O[C@H]2[C@H](O)[C@@H](O)[C@@H](O[C@H]3[C@H](O)[C@@H](O)C(O)O[C@@H]3CO)O[C@@H]2CO)[C@H](O)[C@@H](O)[C@@H]1N[C@H]1C=C(CO)[C@@H](O)[C@H](O)[C@H]1O (stereo partly drawn) [ACARBOSE] |  |  |  |  |  |  |  |  |  |  |  |  |  |  |  | 16.2 |  |  |  |  | Activity (Rattus norvegicus [38]): 22.35% |
| CC(C)=CCn1c(=O)oc2c(C(=O)/C=C/c3ccc(O)c(O)c3)cccc21 | 35 | 0.149 | 7.48 | 98 | 39.7 | 96 | 93 | 90.9 | 41.2 | 52 | 97 | 90.7 | 0.98 | Non-Toxic | 20.7 |  | Active | 43.83 | 47.2 | 50.7 | Activity (Rattus norvegicus [39]): 21.16%; Activity (Rattus norvegicus [33]): 64.3%; Activity (Rattus norvegicus [35]): 32.8%; Activity (Brain [37]): 65.8% |
